The results in this text go back to US4794188A, “Certain unsymmetrical quinolinyl ethers having anti-inflammatory and anti-allergic activity” (USV Pharmaceutical Corporation, priority 1985, dated 1988).

The target in the experiment is T1, 5-LOX (Homo sapiens, UniProt P09917).
T1 sequence (P09917 1-674): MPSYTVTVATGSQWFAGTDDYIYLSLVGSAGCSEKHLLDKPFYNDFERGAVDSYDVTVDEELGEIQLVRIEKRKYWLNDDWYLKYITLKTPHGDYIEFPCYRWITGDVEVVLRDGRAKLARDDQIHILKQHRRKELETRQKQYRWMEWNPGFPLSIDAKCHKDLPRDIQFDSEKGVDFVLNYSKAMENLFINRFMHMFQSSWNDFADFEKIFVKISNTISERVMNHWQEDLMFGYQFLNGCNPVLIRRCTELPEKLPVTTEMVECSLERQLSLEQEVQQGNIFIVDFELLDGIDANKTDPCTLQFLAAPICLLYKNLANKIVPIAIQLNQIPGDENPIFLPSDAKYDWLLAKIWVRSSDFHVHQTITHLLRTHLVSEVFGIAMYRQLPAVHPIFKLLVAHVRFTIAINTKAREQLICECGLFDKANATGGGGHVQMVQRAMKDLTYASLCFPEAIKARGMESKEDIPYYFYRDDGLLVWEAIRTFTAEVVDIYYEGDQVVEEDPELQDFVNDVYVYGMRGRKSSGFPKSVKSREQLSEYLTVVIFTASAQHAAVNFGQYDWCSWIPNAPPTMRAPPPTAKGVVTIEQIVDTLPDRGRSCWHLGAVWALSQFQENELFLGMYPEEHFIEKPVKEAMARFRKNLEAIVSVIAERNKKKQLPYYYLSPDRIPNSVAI
In words: 5-LOX inhibition (5-LOX I50, Table I). It counts as biochemical.
On to `CCCCC(C)C(O)c1cccc(OCc2ccc3ccccc3n2)c1` (stereo not shown), for which the IC50 was 200 nM. For `CCCCCC(O)c1ccc(OCc2ccc3ccccc3n2)cc1` (stereo not shown), the IC50 was found to be 350 nM. Take `CCCCC(C)(C)C(C)(O)c1cccc(OCc2ccc3ccccc3n2)c1` (stereo not shown): the IC50 turned out to be 270 nM.

In turn, `CCCCCC(O)c1cccc(OCc2ccccn2)c1` (stereo not shown) came in with an IC50 of 500 nM. To `CCCCCC(O)c1ccc(Oc2ccc3ccccc3n2)cc1` (stereo not shown) belongs 350 nM.

Regarding `CCCCC=Cc1cccc(OCc2ccc3ccccc3n2)c1` [3-(CHCHC4 H9), 2-[3-(1-Hexenyl)phenoxymethyl]quinoline], the IC50 turned out to be 2400 nM. Take `CCCCCC(O)c1cccc(OCc2cccc(C(=O)O)n2)c1` (stereo not shown): the IC50 turned out to be 1900 nM. `CCCCC(C)(C)C(O)c1cccc(OCc2ccc3ccccc3n2)c1` (stereo not shown) showed an IC50 of 270 nM.

In turn, `CCCCCC(=O)c1cccc(OCc2ccc3ccccc3n2)c1` had an IC50 of 150 nM.

With `CC(O)(CCCCCOc1ccccc1)c1cccc(OCc2ccc3ccccc3n2)c1` (stereo not shown), the IC50 was 800 nM. For `OC(CCCCCOc1ccccc1)c1cccc(OCc2ccc3ccccc3n2)c1` (stereo not shown), inhibition was half-maximal at 600 nM (IC50). Consider `OC(CCCCCOc1cccc(Cl)c1)c1cccc(OCc2ccc3ccccc3n2)c1` (stereo not shown), for which 600 nM corresponded to half-maximal inhibition (IC50).

On to `CCCCCC(O)c1cccc(OCc2ccncc2)c1` (stereo not shown), for which it took 3000 nM to reach half-maximal inhibition (IC50). In turn, `CCCCCC(O)c1cccc(OCc2cccnc2)c1` (stereo not shown) yielded an IC50 of 3000 nM. Compound `CCCCCC(C)(O)c1cccc(OCc2ccccn2)c1` (stereo not shown) gave an IC50 of 300 nM. In the case of `CCCCCC(NC)c1cccc(OCc2ccccn2)c1` (stereo not shown), the IC50 turned out to be 2200 nM.

Compound `CC(=O)CC(O)c1cccc(OCc2ccc3ccccc3n2)c1` (stereo not shown) gave an IC50 of 180 nM. `CCCCCC(O)c1cccc(OCc2cccc(C#N)n2)c1` (stereo not shown) came in with an IC50 of 30000 nM. `CCCCCC(C)(O)c1cccc(OCc2ccc3ccccc3n2)c1` (stereo not shown): the concentration for half-maximal inhibition (IC50) was found to be 100 nM.

The IC50 is the concentration that gives 50% inhibition. High values mean lower potency, low ones higher potency.
